# How the values were obtained:
# [1] = tested on: SOCE of Jurkat T cells; experiment: SOCE inhibition in thapsigargin-treated Jurkat cells (Indo-1 cytosolic calcium); type: cell-based; details: for Ki: SOCE, compound added 30 s before reintroduction of calcium; for concentration below which only SOCE is inhibited (no effect on SERCA and IP3R): selectivity versus SERCA and IP3R
# Description: The Jurkat T lymphocyte line was mainly used for characterizing the effect of the molecules on SOCE. The Indo-1 ratiometric probe was used to visualize cytosolic calcium variations. For this, the cells in culture were centrifuged and then resuspended and incubated in PBS (Phosphate Buffered Saline) medium supplemented with 1 mg/ml of albumin and 4 μM of Indo-1-AM for 45 mim at ambient temperature and in the dark.
# The SOCE phenomenon was evaluated conventionally. Jurkat cells were placed in calcium-free HBS medium and stimulated with 1 μM of thapsigargin (TG, arrow in FIG. 2A) for 600 s in order to allow calcium release from the ER and SOCC channel opening(=CRAC). The addition of 1 mM of CaCl2 to the medium allows massive calcium ion entry through the SOCCs and an increase in the concentration of cytosolic calcium ([Ca^2+]cyt).
# The dose-response curves were established after addition of 2-APB or of an analog thereof 30 seconds before the reintroduction of calcium.
# [2] = molecular target: T1, IP3R (Mus musculus, UniProt P11881); experiment: IP3-dependent 45Ca2+ release in permeabilized L15 cells; type: biochemical
# T1 construct: expressed in transfected cells; host or cells: L15 cell line, permeabilized with saponin
# T1 sequence (P11881 whole entry): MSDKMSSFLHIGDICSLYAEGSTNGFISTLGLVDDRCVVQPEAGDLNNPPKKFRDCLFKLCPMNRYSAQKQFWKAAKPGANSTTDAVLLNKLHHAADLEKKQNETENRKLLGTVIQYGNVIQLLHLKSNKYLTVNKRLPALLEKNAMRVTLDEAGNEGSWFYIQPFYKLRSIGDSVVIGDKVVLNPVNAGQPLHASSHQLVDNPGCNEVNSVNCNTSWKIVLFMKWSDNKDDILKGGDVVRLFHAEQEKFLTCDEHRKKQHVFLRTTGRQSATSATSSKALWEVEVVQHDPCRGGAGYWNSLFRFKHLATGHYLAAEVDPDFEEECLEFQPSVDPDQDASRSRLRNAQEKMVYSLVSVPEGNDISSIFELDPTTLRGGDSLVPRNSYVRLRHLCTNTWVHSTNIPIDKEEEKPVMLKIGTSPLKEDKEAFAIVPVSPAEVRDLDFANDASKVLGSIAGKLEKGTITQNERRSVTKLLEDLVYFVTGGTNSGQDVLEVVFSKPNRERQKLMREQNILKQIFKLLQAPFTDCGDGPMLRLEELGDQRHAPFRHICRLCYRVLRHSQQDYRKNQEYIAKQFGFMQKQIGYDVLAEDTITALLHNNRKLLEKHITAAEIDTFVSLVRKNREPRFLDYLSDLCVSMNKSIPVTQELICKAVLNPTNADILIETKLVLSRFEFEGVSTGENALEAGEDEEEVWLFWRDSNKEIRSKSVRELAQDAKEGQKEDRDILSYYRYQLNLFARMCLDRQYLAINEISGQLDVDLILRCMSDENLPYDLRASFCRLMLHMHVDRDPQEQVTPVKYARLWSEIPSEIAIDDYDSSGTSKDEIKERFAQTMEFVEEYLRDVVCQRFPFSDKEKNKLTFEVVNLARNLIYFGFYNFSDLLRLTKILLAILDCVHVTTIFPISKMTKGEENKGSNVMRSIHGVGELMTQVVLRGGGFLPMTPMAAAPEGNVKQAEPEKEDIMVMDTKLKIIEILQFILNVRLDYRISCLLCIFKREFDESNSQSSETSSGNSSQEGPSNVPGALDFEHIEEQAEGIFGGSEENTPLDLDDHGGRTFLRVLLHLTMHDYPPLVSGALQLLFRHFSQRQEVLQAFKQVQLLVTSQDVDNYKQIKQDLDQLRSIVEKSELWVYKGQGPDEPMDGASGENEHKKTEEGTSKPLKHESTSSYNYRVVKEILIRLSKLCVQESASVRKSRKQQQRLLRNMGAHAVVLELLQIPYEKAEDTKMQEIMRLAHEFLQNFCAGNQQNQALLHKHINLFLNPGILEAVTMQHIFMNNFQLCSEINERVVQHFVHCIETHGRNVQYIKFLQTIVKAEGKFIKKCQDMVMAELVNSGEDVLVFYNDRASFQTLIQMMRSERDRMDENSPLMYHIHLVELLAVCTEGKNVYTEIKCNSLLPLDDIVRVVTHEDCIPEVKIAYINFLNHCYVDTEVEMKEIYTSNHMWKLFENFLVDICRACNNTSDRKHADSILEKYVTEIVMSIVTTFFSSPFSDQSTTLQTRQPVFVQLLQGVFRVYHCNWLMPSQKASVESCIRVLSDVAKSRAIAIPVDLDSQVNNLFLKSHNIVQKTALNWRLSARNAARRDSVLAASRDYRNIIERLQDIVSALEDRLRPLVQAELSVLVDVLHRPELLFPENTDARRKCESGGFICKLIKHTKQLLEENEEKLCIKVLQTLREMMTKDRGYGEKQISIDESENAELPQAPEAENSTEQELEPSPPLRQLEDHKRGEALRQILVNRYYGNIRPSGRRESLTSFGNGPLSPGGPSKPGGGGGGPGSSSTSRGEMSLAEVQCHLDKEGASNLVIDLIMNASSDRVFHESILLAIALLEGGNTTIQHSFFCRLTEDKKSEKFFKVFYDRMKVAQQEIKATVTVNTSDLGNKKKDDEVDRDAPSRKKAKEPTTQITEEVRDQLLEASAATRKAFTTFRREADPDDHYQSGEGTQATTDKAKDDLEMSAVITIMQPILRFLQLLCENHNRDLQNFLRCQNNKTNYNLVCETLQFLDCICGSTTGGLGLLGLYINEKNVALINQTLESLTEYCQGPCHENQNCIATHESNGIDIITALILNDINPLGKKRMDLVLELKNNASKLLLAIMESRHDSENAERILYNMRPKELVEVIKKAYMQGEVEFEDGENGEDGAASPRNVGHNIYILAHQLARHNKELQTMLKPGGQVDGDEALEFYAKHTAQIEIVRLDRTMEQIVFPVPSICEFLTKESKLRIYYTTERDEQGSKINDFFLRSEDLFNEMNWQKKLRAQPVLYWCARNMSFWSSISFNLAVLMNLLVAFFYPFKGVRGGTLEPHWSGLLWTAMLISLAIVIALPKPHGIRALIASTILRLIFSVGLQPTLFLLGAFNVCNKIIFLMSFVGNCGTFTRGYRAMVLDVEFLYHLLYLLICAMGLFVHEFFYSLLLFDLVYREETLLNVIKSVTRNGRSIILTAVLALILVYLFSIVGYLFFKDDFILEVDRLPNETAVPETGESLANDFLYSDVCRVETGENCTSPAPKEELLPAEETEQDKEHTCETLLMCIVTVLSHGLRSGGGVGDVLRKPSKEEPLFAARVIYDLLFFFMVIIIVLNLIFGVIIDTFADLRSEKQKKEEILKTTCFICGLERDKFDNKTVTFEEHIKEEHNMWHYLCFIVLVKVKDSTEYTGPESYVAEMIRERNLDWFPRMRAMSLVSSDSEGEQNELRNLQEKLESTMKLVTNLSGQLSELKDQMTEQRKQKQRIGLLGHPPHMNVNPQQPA
# Description: (§1) To test the selectivity of certain molecules on SOCE compared to IP3R and SERCA, the L15 line stably expressing type 1 IP3R was used. Briefly, the cells were permeabilized with saponin and incubated in the presence of ^45Ca^2+ in a medium containing ATP allowing SERCA activity and Ca' ion entry into the ER. The addition of TG makes it possible to induce release from the ER and therefore to measure the amount of Ca^2+ ions that have left the ER, which is itself directly linked to the SERCA activity. The addition of IP3 allows direct measurement of the amount of Ca' ions leaving the ER by IP3R opening.
# (§2) The ^45Ca^2+ loading and IP3-dependent release measurements were carried out on permeabilized cells under one-way conditions.
# [3] = tested on: SERCA; experiment: 45Ca2+ loading (SERCA activity) in permeabilized L15 cells; type: biochemical; details: for Ki: permeabilized cells
# Description: as §1, §2
# [4] = tested on: Orai1-SOCE in leukocytes; details: cited from earlier work
# [5] = tested on: Mn2+ influx via the SOCCs; experiment: Mn2+ quenching of indo-1 in TG-treated Jurkat cells; type: cell-based; details: 1 μM
# Description: In order to determine whether compound P11 has an action on SOCE and not on calcium efflux mechanisms, a quenching experiment with Mn^2+ was carried out by means of the indo-1 molecule. The Mn^2+ ions enter the cells via the SOCCs, but cannot be pumped into the extracellular membrane by the plasma membrane calcium-dependent ATPases (plasma membrane Ca^2+ ATPases, or PMCA) or the sodium/calcium exchanger (Na^+/Ca^2+ exchanger, or NCX) or sent back into the lumen of the ER by the sarcoplasmic-endoplasmic reticulum Ca^2+ ATPases (or SERCAs). Once in the cell, Mn^2+ binds to indo-1 and quenches its fluorescence measured at 430 nm. An increase in the amplitude of the Mn^2+ influx is therefore associated with an increase in the indo-1 quenching rate, and vice versa.
# After 10 minutes of treatment with TG in order to open the SOCCs, 100 μM of MnCl2 were added. A degree of quenching of −0.89±0.05% Fo/s was observed (FIG. 3A). In the presence of increasing concentrations of P11 added 30 seconds before the addition of Mn^2+ ions, the degree of quenching decreased and reached a blocking of approximately 90% at 1 μM (−0.09±0.01, FIG. 3A).
# [6] = tested on: SOCE in DG75 cells (B lymphocytes); experiment: SOCE inhibition in DG75 cells; type: cell-based
# Description: (§3) The Jurkat T lymphocyte line was mainly used for characterizing the effect of the molecules on SOCE. The Indo-1 ratiometric probe was used to visualize cytosolic calcium variations. For this, the cells in culture were centrifuged and then resuspended and incubated in PBS (Phosphate Buffered Saline) medium supplemented with 1 mg/ml of albumin and 4 μM of Indo-1-AM for 45 mim at ambient temperature and in the dark. The cells were then again centrifuged and resuspended in the HBS (Hepes-Buffered Saline) recording medium having the composition (in mM): 135 mM NaCl, 5.9 mM KCl, 1.2 mM MgCl2, 11.6 mM Hepes, 11.5 mM glucose, pH adjusted to 7.3 with NaOH. 0.5 to 1 million cells are then placed in the cuvette of a Varian Cary Eclipse spectrofluorimeter and the Indo-1 probe is excited at 360 nm, with emission of fluorescence at 405 and 480 nm. The ratio of fluorescence at 405 and 480 nm is directly proportional to the [Ca^2+]cyt.
# (§4) The lines of monocyte origin U937, B lymphocyte origin (DG75) and breast cancer origin (MDA-MB231) were also used with the same protocol.
# [7] = tested on: SOCE in U937 cells (monocytes); experiment: SOCE inhibition in U937 cells; type: cell-based; details: FIG. 3B
# Description: as §3, §4
# [8] = tested on: SOCE in MDA-MB231 cells (hormone-independent breast cancer cells); experiment: SOCE inhibition in MDA-MB231 cells; type: cell-based; details: FIG. 3B
# Description: as §3, §4
# [9] = tested on: PHA-stimulated Jurkat cells; experiment: IL-2 synthesis by PHA-stimulated Jurkat cells (Elisa); type: cell-based
# Description: In order to measure the interleukin-2 (IL-2) synthesis in 24 h after stimulation with 10 μg/ml of phytohemagglutinin (PHA) in the presence or absence of certain molecules, the Jurkat cells are centrifuged and the supernatant containing the IL-2 is collected. The 11-2 concentration is measured by Elisa (R&D systems kit).
# The concentration of neosynthesized IL-2 was measured in the culture medium of phytohemagglutinin (PHA)-stimulated Jurkat cells after 24 h, in the presence of increasing concentrations of compound P11. […] Conversely, stimulation with PHA allows the detection of approximately 100 pg/ml of IL-2 (103 ±4 pg/ml, FIG. 5A). The addition of increasing concentrations of P11 at the same time as the stimulation by PHA leads to a gradual decrease in IL-2 synthesis to 26±6 pg/ml for 1 μM of P11 (-74%, FIG. 5B).
# [10] = tested on: Jurkat cells; experiment: Cell death of Jurkat cells; type: cell-based
# [11] = tested on: caspase-3 activity of Jurkat cells; experiment: Caspase-3 activity in Jurkat cells (Ac-DEVD-AFC substrate); type: cell-based
# Description: The caspase-3 activity is measured with a fluorescent kit using the Ac-DEVD-AFC substrate. The Jurkat cells are incubated for 24 h with PHA in the presence or absence of certain molecules. The cells are then lyzed with RIPA medium, and the amounts of proteins are then measured with a commercial kit (Biorad). The cell lysates are then diluted in the following reaction medium: 200 mM Hepes, pH 7.4, 1 mM EDTA, 20% sucrose and 20 mM dithiothreitol, then incubated with 20 μM of the fluorogenic substrate for 45 min […] at 37° C. The appearance of the fluorescent AFC product is measured by spectrofluorimetry (excitation at 405 nm, emission at 505 nm).
# (§5) The caspase-3 activity was then evaluated by means of an Ac-DEVD-AFC fluorogenic substrate, and apoptosis was evaluated by means of a TUNEL assay.
# [12] = tested on: PHA-stimulated Jurkat cells; experiment: TUNEL assay of DNA fragmentation in PHA-stimulated Jurkat cells; type: cell-based; details: concentrations greater than 10 nM
# Description: The Roche TUNEL kit was used to observe the nuclear DNA fragmentation and therefore cell apoptosis.
# as §5
# [13] = PHA, increasing amounts of P11, FIG. 5C
smiles,measurement,setting,value
NCCOB(c1ccc(F)cc1)c1ccc(F)cc1 [Compound P14],Ki,[1]; Jurkat cells,5400 ± 300 nM
Cc1ccc(B(OCCN)c2ccc(C)cc2)cc1 [Compound P3],Ki,[1]; Jurkat cells,3500 ± 600 nM
Cc1ccc(B(OCCN)c2ccc(C)c(Cl)c2)cc1Cl [Compound P15],Ki,[1]; Jurkat cells,294 ± 74 nM
CC(C)(C)c1ccc(B(OCCN)c2ccc(C(C)(C)C)cc2)cc1 [Compound P8],Ki,[1]; Jurkat cells,350 ± 40 nM
NCCOB(c1ccc(Cl)cc1)c1ccc(Cl)cc1 [Compound P13],Ki,[1]; Jurkat cells,1840 ± 100 nM
CC(C)(C)c1ccc(B(OCCN)c2ccc(C(C)(C)C)cc2)cc1 [Compound P9],Ki,[1]; Jurkat cells,641 ± 103 nM
same,concentration below which only SOCE is inhibited (no effect on SERCA and IP3R),[1],Below 3 μM
same,inhibition of IP3R activity (in words),[2]; FIG. 4,did not significantly inhibit
same,Ki,[3],6000 ± 300 nM
COc1cccc(B(OCCN)c2cccc(OC)c2)c1 [Compound P4],maximum inhibition of SOCE,[1]; Jurkat cells,80%
same,Ki,[1]; Jurkat cells,75000 ± 21000 nM
Cc1ccc(B(OCCN)c2ccc(C)c(C)c2)cc1C [Compound P7],Ki,[1]; Jurkat cells,751 ± 97 nM
"NCCOB(c1ccccc1)c1ccccc1 [Compound 2-APB, 2-Aminoethoxydiphenyl borate, reference compound]",effect on calcium entry at 5 μM,"[1]; Jurkat cells, 5 μM, FIG. 2A",high potentiation of calcium entry
same,effect on calcium entry at 50 μM,"[1]; Jurkat cells, 50 μM, FIG. 2A",virtually total inhibition
same,concentration at which Orai1-SOCE is inhibited,[4],greater than 30 μM
Cc1cccc(B(OCCN)c2cccc(C)c2)c1 [Compound P5],Ki,[1]; Jurkat cells,2100 ± 600 nM
COc1ccc(B(OCCN)c2ccc(OC)cc2)cc1 [Compound P2],Ki,[1]; Jurkat cells,3500 ± 650 nM
"NCCOB(c1ccc(-c2ccccc2)cc1)c1ccc(-c2ccccc2)cc1 [Compound P11, 2-(dibiphenyl-4-ylboryloxy)ethamine]",Ki,[1]; Jurkat cells,75 ± 21 nM
same,concentration below which only SOCE is inhibited (no effect on SERCA and IP3R),[1],less than 1 μM
same,blocking of Mn2+ quenching,[5],approximately 90%
same,degree of indo-1 quenching by Mn2+,"[5]; added 30 s before 100 μM MnCl2, after 10 min TG",−0.09±0.01 % Fo/s
same,Ki,"[6]; DG75 cells (B lymphocytes), FIG. 3B",32 ± 2 nM
same,concentration at which total inhibition of SOCE is achieved,"[6]; FIG. 3B (other cell types: DG75, U937, MDA-MB231)",100 nM
same,Ki,[7],40 ± 5 nM
same,Ki,[8],50 ± 5 nM
same,inhibition at 100 µM,[2]; 100 μM,29 ± 9%
same,ratio Ki SERCA versus Ki SOCE,[3]; SERCA 7.4 μM vs SOCE 75 nM,100 times
same,inhibition of SERCA,[3]; concentration greater than 30 μM,89%
same,Ki,[3],7400 nM
same,IL-2 concentration in culture medium,"[9]; 1 μM with 10 μg/ml PHA, 24 h",26 ± 6 pg/mL
same,change in IL-2 synthesis,"[9]; 1 μM with PHA, 24 h",-74%
same,IL-2 synthesized by the remaining living cells,[9]; [13],39.2 ± 8.6 pg/mL
same,decrease of IL-2 synthesis capacity of remaining living cells,[9]; [13],approximately 63%
same,percentage of dead cells,[10]; 1 μM combined with PHA,33.2±1.3%
same,"toxic effect on the cells, compound alone",[10]; without PHA,did not exhibit any toxic effect
same,caspase-3 activity,"[11]; 1 μM with PHA, 24 h",3332±113 AU
same,increase of caspase-3 activity (factor),"[11]; with PHA, from 10 nM, maximum effect",3
same,"caspase-3 activity, compound alone","[11]; without PHA, up to 1 μM",does not induce an increase in caspase-3 activity
same,cells containing fragmented DNA,[12],17.9±1.2%
same,fold increase in number of cells containing fragmented DNA,[12],4.5 fold
